The structures appear in SMILES notation.

Here are results for two compounds from US20210047192A1, “DELAYED RELEASE FORMULATION OF NITRIFICATION INHIBITORS” (BASF SE, priority 2018, published 2021).

One series has as its system sandy soil. Description: Nitrogen retention in field trials (NH4-nitrogen content of soil). Particulars: incorporation depth 0 cm. Format: in vivo. On the procedure: An area of sandy soil, previously untreated with fertilizer or other agricultural products near the field station Limburgerh of, was treated as follows. Drainage pipes of 20 cm in length and 12 cm diameter were inserted 10 cm deep into the soil. A treatment as indicated in a line of Table 10 was added on top of the soil under which a pipe was buried. At the beginning of the experiment and after three weeks, the pipes were dug out of the soil with its content, the content emptied into a bag and frozen on site. The soil was then analyzed for NH4-nitrogen content in the laboratory according to the following method: Samples were defrosted for 24 h, then sieved through a 5-6 mm mesh sieve. 200 g of the thus homogenized samples were put into 1 L plastic bottles and 600 mL of a […] solution (1% (w/w) K2SO4 in water) were added. The samples were then shaken for 2 h end over end. The solution was filtered to remove the soil and 50 mL of the filtrate retained for analysis in a Continuous Flow Analyzer for NH4-nitrogen content.

Series [1] can be described thus: Volatility measurement at 35° C. (weight loss of beakers in oil bath). Format: physicochemical. Particulars: relative to the initial weight, after 23 hours at 35° C. On the procedure: Five beakers B1-B5 were prepared containing samples as specified in Table 2
(§1) All 5 beakers were mounted in an oil bath such that half of the beakers were immersed. The temperature of the oil bath was set to 35° C. During the heating process, the beakers were periodically taken out of the oil bath, dried, and weighted. The total mass of the beaker with samples was noted and compared to the initial weight of the beakers with samples. The weight loss attributed to Compound A was calculated from the total weight loss of the sample by taking the loading of the respective sample with Compound A into account. A comparison of the weight loss of Compound A, and the whole sample weight loss in the all 5 beakers after 23 hours at 35° C. was shown in the Table 3.

Series [2] in a line: Volatility measurement at 100° C. Particulars: relative to the initial weight, after hours at 100° C. Type of series: physicochemical. The protocol: as §1
Five beakers B1-B5 were prepared and treated as described in Example-1 with the differences that the oil bath was set to 100° C. and that the weight loss was recorded after […].

Series [3] in a line: Volatility measurement at 60° C. with different loading for 24 or 72 hours (beakers B11-B15). Format: physicochemical. To be noted: relative to the initial weight. On the procedure: Five beakers B11-B15 were prepared containing samples as specified in Table 8.
All 5 beakers B11-B15 were mounted in an oil bath such that half of the beakers were immersed. The temperature of the oil bath was set to 60′C. During the heating process, the beakers were periodically taken out of the oil bath, dried, and weighted. The total mass of the beaker with samples was noted and compared to the initial weight of the beakers with samples. The weight loss attributed to Compound A was calculated from the total weight loss of the sample by taking the loading of the respective sample with Compound A into account. A comparison of the weight loss of Compound A, and the whole sample weight loss in the all 5 beakers after 24 and 72 hours at 60° C. was shown in the Table 9.

The nature of series [4]: Volatility measurement at 60° C. (weight loss after 32 hours). To be noted: relative to the initial weight, after 32 hours at 60° C. Type of series: physicochemical. The protocol: as §1
Five beakers B1-B5 were prepared and treated as described in Example-1 with the differences that the oil bath was set to 60° C. and that the weight loss was recorded after 32 hours.

As to `N.N.O=S(=O)(O)O` [Ammonium Sulfate], the figures for the NH4-nitrogen in the series with sandy soil (3 weeks after application) and with sandy soil (at time of application) were 8 kg/ha and 75 kg/ha, respectively.

Consider `C#CCOCc1ccc(Cl)cc1` [Compound A, 1-chloro-4-(prop-2-ynoxymethyl)benzene], for which, in series [1], the “Total sample weight loss” value is recorded as 4.22% and the “Weight loss of Compound A” value was 4.22%. In series [2], the “Total sample weight loss” value was found to be 68.82% and the “Weight loss of Compound A” value came out at 68.82%. Besides, in series [3] (24 hours), the “Total sample weight loss after 24 hours” value stood at 9.02% and the “Weight loss of Compound A after 24 hours” value turned out to be 9.02%. Also, in series [3] (72 hours), the “Total sample weight loss after 72 hours” value was determined as 26.99% and the “Weight loss of Compound A after 72 hours” value came to 26.99%. In series [4], the “Total sample weight loss” value was 37.97% and the “Weight loss of Compound A” value is recorded as 37.97%.
